Experiment: Inhibition of HMG-coA reductase in CD rat liver microsomal-cytosol fraction assessed as inhibition of fatty acid synthesis using [2-14C]acetate as substrate after 90 mins by scintillation counting analysis

IC50 [µM] | SMILES
80 | CC(CCc1ccc(-c2ccccc2)cc1)CC(=O)O (configuration not stated)
1200 | CC(CC(=O)O)CC(=O)c1ccc(-c2ccccc2)cc1 (configuration not stated)
2100 | CC(CC(=O)O)CC(=O)c1ccc(Oc2ccccc2)cc1 (configuration not stated)
780 | CC(CC(=O)O)CC(=O)c1ccc(Sc2ccccc2)cc1 (configuration not stated)
430 | CC(CC(=O)O)CC(=O)c1ccc2oc3ccccc3c2c1 (configuration not stated)
930 | CC(CC(=O)O)CC(=O)c1ccc2sc3ccccc3c2c1 (configuration not stated)
80 | CC(CCc1ccc(Oc2ccccc2)cc1)CC(=O)O (configuration not stated)
100 | CC(CCc1ccc(Sc2ccccc2)cc1)CC(=O)O (configuration not stated)
80 | CC(CCc1ccc(S(=O)(=O)c2ccccc2)cc1)CC(=O)O (configuration not stated)
1600 | CC(CCc1ccc2oc3ccccc3c2c1)CC(=O)O (configuration not stated)
860 | CC(CCc1ccc2sc3ccccc3c2c1)CC(=O)O (configuration not stated)
30 | CC(CCc1ccc2c(c1)-c1ccccc1S2(=O)=O)CC(=O)O (configuration not stated)

From BindingDB's records for doi:10.1021/jm00222a039 (1978)
